Assay in all cases: DTP human tumour cell line panel, 48 h
The subject of assay [1] is SW-620 colon.
The subject of assay [2] is TK-10 renal.
The test system of assay [3] is ACHN renal.
Assay [4] has as its system SK-MEL-2 melanoma.
In assay [5] the test system is HCC-2998 colon.
Assay [6] deals with EKVX NSCLC.
For assay [7], the system named is SNB-75 CNS.
Assay [8] has as its system UO-31 renal.
Assay [9] concerns MOLT-4 leukemia.
Assay [10] concerns HOP-92 NSCLC.

SMILES strings stand for the structures.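 Protocol summary: plate cells (96-well), add compound at 5 concentrations, incubate 48 h, interpolate endpoints linearly. At the GI50, growth is halved. At the TGI there is no net growth.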

Broadly, the TGI is the concentration at which net growth stops. A low value points to greater sensitivity of the cells. For the compound `c1ccc(-c2nnc(-c3nn(-c4ccccc4)c4nc5ccccc5nc34)o2)cc1`, the TGI in assay [1], in assay [2], in [3], in [4], in [5] and in assay [6] was more than 100 µM throughout. Besides, the total growth inhibition concentration (TGI) in [7] was more than 100 µM; in [8], more than 100 µM; in [9], 71.6 µM.

As to `O=C(N/N=C/c1cccc(O)c1O)N/N=C/c1cccc(O)c1O`, the TGI was more than 100 µM in assay [1]; more than 100 µM in [2]; more than 100 µM in [3]; more than 100 µM in assay [4]; more than 100 µM in assay [6]; 77.9 µM in assay [10]. Further, the concentration for total growth inhibition (TGI) in assay [7] was determined as 50.4 µM; in assay [8], 36.8 µM; in [9], 46.8 µM.

The term GI50 denotes the concentration giving 50% growth inhibition. Take `CN=C1NC(=O)/C(=C/c2ccc3ncccc3c2)S1`: the GI50 was 8.41 µM in assay [1]; 6.02 µM in assay [2]; 6.77 µM in assay [3]; 5.42 µM in assay [4]; more than 20 µM in assay [5]; 8.03 µM in assay [10]. The results for the GI50 in [7], in assay [8] and in assay [9] were 3.8 µM, 5.29 µM and 11.2 µM, respectively. Also, the TGI is more than 25 µM in assay [1]; more than 25 µM in assay [2]; more than 25 µM in assay [3]; 14.4 µM in [4]; more than 25 µM in [5]; more than 25 µM in assay [10]. In addition, the TGI is more than 21.2 µM in assay [7], more than 25 µM in assay [8] and more than 25 µM in assay [9].

On to `NS(=O)(=O)c1ccc(-n2nc(-c3ccc(Br)cc3)ccc2=O)cc1`, for which the GI50 in [1], in [2], in assay [3], in [4], in [5] and in assay [10] was more than 10 µM throughout. Further, the GI50 in assay [7], in assay [8] and in [9] was more than 10 µM each time. Besides, the TGI in [1], in [2], in [3], in assay [4], in assay [5] and in assay [10] was more than 10 µM throughout. For the same compound, the concentration for total growth inhibition (TGI) in assay [7], in assay [8] and in assay [9] was more than 10 µM throughout.

In the case of `CCOC(=O)c1cc(-c2ccc([N+](=O)[O-])cc2)n(-c2ccc(C(=O)O)c(O)c2)c1C`, the GI50 in assay [1] is 4.76 µM; in assay [2], 6.18 µM; in [3] it was 2.94 µM; in assay [4], 11.5 µM; in assay [6] it was 5.2 µM; in assay [10], 2.09 µM. In addition, the GI50 in assay [7] was 7.65 µM; in [8], 3.74 µM; in assay [9] it was 3.37 µM. Besides, the total growth inhibition concentration (TGI) in assay [1] worked out at 16.8 µM; in assay [2], 20 µM; in assay [3], 9.38 µM; in assay [4], 24.7 µM; in [6] it was 18 µM; in assay [10], 13.4 µM. Besides, the figures for the total growth inhibition concentration (TGI) in assay [7], in assay [8] and in assay [9] were 22.1 µM, 18.3 µM and 20.7 µM, respectively.

Regarding `NC1(CCCCCCCCCCC(=O)O)CNCCNCCNCCNC1`, the total growth inhibition concentration (TGI) in [1] was more than 100 µM; in [2], more than 100 µM; in assay [3] it was more than 100 µM; in assay [4], more than 100 µM; in assay [5], 46 µM; in assay [6], more than 100 µM. The total growth inhibition concentration (TGI) in assay [8] and in [9] was more than 100 µM each time.

In the case of `C[C@]12CCC(=O)C=C1CC[C@@H]1C2CC[C@]2(C)NC(=O)C(C#N)CC12` (stereo partly specified), the TGI in [1], in [2], in [3], in assay [4], in [5] and in [7] was more than 100 µM throughout. In addition, the total growth inhibition concentration (TGI) in assay [8] and in assay [9] was more than 100 µM throughout.

Take `COc1cc2c(c(OC)c1OC)-c1ccc(NCc3ccccc3)c(=O)cc1[C@@H](NC(C)=O)CC2`: the GI50 was 0.391 µM in assay [1]; 4.82 µM in [2]; 1.39 µM in [3]; 0.643 µM in [4]; 0.529 µM in [5]; 0.318 µM in assay [10]. Besides, the GI50 was 0.318 µM in [7], 4.99 µM in assay [8] and 0.489 µM in assay [9]. The total growth inhibition concentration (TGI) in [1] was more than 100 µM; in assay [2], more than 100 µM; in assay [3], more than 66.6 µM; in [4], 22.8 µM; in assay [5], 13.2 µM; in [10], 4.1 µM. Moreover, the values for the TGI in [7], in assay [8] and in assay [9] were 25.2 µM, 44.9 µM and more than 87.5 µM, respectively.

Regarding `COc1ccc(N=Cc2cc(OC)c(OC)c(OC)c2)cc1`, the TGI was 30 µM in assay [1]; more than 100 µM in [2]; more than 100 µM in assay [3]; more than 100 µM in assay [4]; more than 100 µM in [6]; more than 100 µM in assay [10]. For the same compound, the TGI in [7], in [8] and in [9] was more than 100 µM each time.

As for `ClCc1ccccc1CSc1ncnc2nc[nH]c12`, the GI50 in assay [1], in [3], in assay [5], in assay [6], in assay [10] and in assay [7] was more than 60 µM each time. The GI50 in [8] and in assay [9] was more than 60 µM in each case. Moreover, the TGI in [1], in assay [3], in [5], in [6], in assay [10] and in [7] was more than 60 µM throughout. Further, the concentration for total growth inhibition (TGI) in assay [8] and in [9] was more than 60 µM in each case.

Source of the values: PubChem BioAssay (NCI).
